The record followed here is patent US7253295B2, “Chloride channel opener” (Sucampo AG, priority 2001, dated 2007).

Molecules are shown by their SMILES.

One experiment has as its system AS-HBE cells. In words: Short-circuit current in AS-HBE cells (Test Example 3). Type of experiment: cell-based, human. As to conditions: 250 nM. The method, then:
AS-HBE is a human bronchial epithelial (HBE) cell line expressing the first 131 nucleotides of CFTR in the antisense direction (antisense CFTR 16HBE14o- cells, HBE-AS; also called AS-HBE). As a result, AS-HBE cells lack CFTR transcripts and lack functional CFTR. However, AS-HBE cells do express functional ClC-2 in a manner identical to the parental cell line, 16HBE14o- cells, from which they were derived. AS-HBE cells were maintained at 37° C. in 5%/95% CO2/O2 in Minimal Essential Medium (MEM; GIBCO/Invitrogen, Carlsbad, Calif.) supplemented with Earl's salt, L-glutamine (GIBCO/Invitrogen), 10% heat-inactivated fetal bovine serum, 100 units/ml penicillin, 100 μg/ml streptomycin sulfate and 400 μg/ml G-418 (GIBCO/Invitrogen). The cells were grown in air-liquid interface on Biocoat inserts (Fisher Scientific, Chicago, Ill.), coated with human plasma fibronectine (GIBCO/Invitrogen) and vitrogen (Cohesion Technologies, Palo Alto, Calif.).
According to the same manner as described in Example 2, Short-circuit current measurements in the AS-HBE cells were carried out. Changes in short-circuit current (ΔIsc) were normalized to the filter area (0.3 cm^2) and reported as ΔIsc/cm^2.
Test compounds were used at a final concentration of 250 nM.
As for `CCCCC[C@H](O)/C=C/[C@@H]1[C@@H](C/C=C\CCCC(=O)O)[C@@H](O)C[C@H]1O` [Compound 6, PGF2α, reference compound], the “Changes in short-circuit currents (Δlsc)” value was 0.7 μA/cm^2.

Turning to `CCCCC[C@H](O)/C=C/[C@@H]1[C@H]2C/C(=C/CCCC(=O)[O-])O[C@H]2C[C@H]1O.[Na+]` [Compound 7, PGI2-Na, reference compound], the “Changes in short-circuit currents (Δlsc)” value worked out at 1.0 μA/cm^2.

With `CCCCC(F)(F)C(=O)/C=C/[C@H]1[C@H](O)CC(=O)[C@@H]1CCCCCCC(=O)O` [Compound 4, 15-keto-16,16-difluoro-PGE1], the “Changes in short-circuit currents (Δlsc)” value amounted to 1.0 μA/cm^2.

On to `CCCCC(F)(F)C1(O)CC[C@H]2[C@@H](CC(=O)[C@@H]2CCCCCCC(=O)NCC)O1` (stereo partly drawn) [Compound 3, N1-ethyl-7-[(2,4aR,5R,7aR)-2-(1,1-difluoropentyl)-2-hydroxy-6-oxoperhydrocyclopenta[b]pyran-5-yl]heptanamide], for which the “Changes in short-circuit currents (Δlsc)” value worked out at 2.7 μA/cm^2.

Turning to `CCCCCCC(F)(F)C1(O)CC[C@H]2[C@@H](CC(=O)[C@@H]2CCCCCCCCC(=O)OC(C)C)O1` (stereo partly drawn) [Compound 5, Isopropyl (−)-9-[(4aR,5R,7aR)-2-(1,1-difluoroheptyl)-2-hydroxy-6-oxoperhydrocyclopenta[b]pyran-5-yl]nonanoate], the “Changes in short-circuit currents (Δlsc)” value is recorded as 0.3 μA/cm^2.

The target of a further experiment is T1, recombinant human ClC-2 Chloride Channels (Homo sapiens, UniProt P51788).
T1 construct: His; T7; expressed in transfected cells; host or cells: HEK-293 (ATCC), pcDNA3.1, G-418 selected
T1 sequence (P51788 1-898): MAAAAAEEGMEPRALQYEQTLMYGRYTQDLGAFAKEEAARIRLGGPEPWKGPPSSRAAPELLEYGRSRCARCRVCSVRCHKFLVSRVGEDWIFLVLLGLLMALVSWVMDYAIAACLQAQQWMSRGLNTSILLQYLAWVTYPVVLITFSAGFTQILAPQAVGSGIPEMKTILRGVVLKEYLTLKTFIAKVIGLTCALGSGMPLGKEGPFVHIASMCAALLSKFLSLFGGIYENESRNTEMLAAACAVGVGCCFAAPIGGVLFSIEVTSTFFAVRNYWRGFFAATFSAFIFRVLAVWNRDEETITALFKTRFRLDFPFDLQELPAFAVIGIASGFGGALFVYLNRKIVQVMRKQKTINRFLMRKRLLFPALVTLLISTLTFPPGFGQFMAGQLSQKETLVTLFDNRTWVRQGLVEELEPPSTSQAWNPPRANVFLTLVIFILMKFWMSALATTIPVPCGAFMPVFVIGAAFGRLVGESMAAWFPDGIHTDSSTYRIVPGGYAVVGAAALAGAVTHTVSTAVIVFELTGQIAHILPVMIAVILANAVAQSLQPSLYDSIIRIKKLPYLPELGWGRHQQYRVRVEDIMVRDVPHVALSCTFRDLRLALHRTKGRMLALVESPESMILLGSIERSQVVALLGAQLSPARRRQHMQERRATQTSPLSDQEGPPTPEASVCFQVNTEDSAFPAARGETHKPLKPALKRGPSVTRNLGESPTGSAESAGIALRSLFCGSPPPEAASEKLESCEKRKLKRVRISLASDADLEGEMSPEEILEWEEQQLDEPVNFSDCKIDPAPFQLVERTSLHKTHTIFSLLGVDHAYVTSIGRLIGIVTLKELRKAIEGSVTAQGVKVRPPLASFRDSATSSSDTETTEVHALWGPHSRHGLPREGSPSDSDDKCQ
In words: Whole cell patch clamp, ClC-2 transfected HEK cells, current increase (Test Example 4). Type of experiment: cell-based. Conditions: 100 nM, change from control. As to the method:
According to the same manner as described in Example 1, whole cell patch clamp measurements were carried out.
Test compounds were used at a final concentration of 100 nM.
On the technique in general: In patch-clamp work, channel activity is measured electrically.
Turning to `CCCCC(F)(F)C1(O)CC[C@@H]2[C@@H](CCCCCCC(=O)NCC)[C@@H](O)C[C@H]2O1` (stereo partly drawn) [Compound 9, N1-ethyl-7-[(2,4aR,5R,6S,7aR)-2-(1,1-difluoropentyl)-2,6-dihydroxyperhydrocyclopenta[b]pyran-5-yl]heptanamide], the “Activation of ClC-2 channels ΔpA/pF” value amounted to 38.2 pA/pF.

For `CCCCC(F)(F)C(O)CC[C@H]1[C@H](O)CC(=O)[C@@H]1CCCCCCC(=O)O` (stereo partly shown) [Compound 8, 13,14-dihydro-16,16-difluoro-PGE1], the “Activation of ClC-2 channels ΔpA/pF” value is on record as 24.6 pA/pF.
